The METLIN SMRT retention time set (Domingo-Almenara et al. 2019)

Experiment: gradient 5% acetonitrile 3 min, to 50% in 2 min, to 85% in 15 min, held 3 min, 100 µL/min
Details: column: Zorbax Extend-C18 2.1 x 50 mm; eluents: water / acetonitrile, 0.1% formic acid
Summary of the method: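 Using water and acetonitrile that each contained 0.1% formic acid, mixtures of ~100 pure standards were separated at 100 μL/min on a Zorbax Extend-C18 column (2.1 × 50 mm, 1.8 μm). The HPLC fed a quadrupole time-of-flight mass spectrometer working in positive and negative ionization mode, with dead and dwell volumes of 40 μL and 900 μL. Data were acquired over 3 months. Retention time was read from computationally picked adduct peaks after manual inspection of each.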

Row | RP-LC retention time [s] | Compound
1 | 576 | CN1CCC(N2CCN(C(=O)c3cc(-c4ccc(F)cc4)cn3C)CC2)CC1
2 | 1030 | COc1ccc(-c2noc(C3CCCN3C(=O)COc3ccc(Cl)cc3)n2)cc1 (configuration not stated)
3 | 1090 | CCOc1ccc(OCC)c(NS(=O)(=O)c2cc(-c3cc(CC)no3)cs2)c1
4 | 695 | CCn1cnnc1C1CCCCN1S(=O)(=O)c1ccc(C#N)cc1 (configuration not stated)
5 | 635 | O=C(Cc1nc(-c2ccccn2)n[nH]1)Nc1cccc(F)c1
6 | 611 | CC(C)(C)C(=O)Nc1ccc(N2CCN(CCC#N)CC2)cc1C(=O)O
7 | 850 | O=C(Cn1cccc(-c2nc(-c3ccc(F)cc3)no2)c1=O)Nc1ccc2c(c1)OCO2
8 | 687 | CCC1CN2C=Nc3oc(C)c(C(=O)Nc4cccc(Cl)c4C)c3C2=N1 (configuration not stated)
9 | 827 | O=C(N[C@H]1C[C@@H]2C[C@H]1N(C(=O)Cc1c(F)cccc1Cl)C2)c1ccccc1
10 | 700 | CCn1c(CCC(=O)NCc2cccc(F)c2)nc2ccccc2c1=O
11 | 756 | CCOc1ccc(NC(=O)NCCn2c(C(F)(F)F)nc3cccnc32)cc1
12 | 604 | Cc1ccc(NC(=O)N2CCC(N3CCN(Cc4ccccn4)C(=O)C3=O)CC2)cc1
13 | 807 | Cc1ccc2nc(-c3cccc(Cl)c3)c(Nc3ccccc3C)n2c1
14 | 1040 | Cc1ccc(C)c(N2CCN(C(=O)Cn3nc(C(=O)N4CCCC4)c4ccccc43)CC2)c1
15 | 834 | Cc1ccc(N2C(=O)CN(S(C)(=O)=O)CC2(C)C(=O)NCc2ccc(F)cc2)c(C)c1 (configuration not stated)
16 | 613 | c1cn(-c2cc(NC3CCCC3)ncn2)cn1
17 | 685 | NC(N)=NCCC[C@H](NC(=O)c1sccc1NS(=O)(=O)c1cccc2nsnc12)C(=O)O
18 | 515 | COCCN1CCC(N2CCN(C(=O)c3ccsc3)CC2)C1=O (configuration not stated)
19 | 809 | CCc1ccc(N2C(=O)CN(S(C)(=O)=O)CC2(C)C(=O)NCc2ccccc2)cc1 (configuration not stated)
20 | 743 | O=C(NCc1cc(F)ccc1F)C1CCc2nc(N3CCCCC3)ncc2C1 (configuration not stated)
21 | 671 | COCC1CN(C(C)=O)CC12CCN(C(=O)C1CC=CCC1)CC2 (configuration not stated)
22 | 738 | Cc1cc2c(N3CCCC(C(=O)NCc4ccccc4C(F)(F)F)C3)nccc2s1 (configuration not stated)

Row | RP-LC retention time [s] | Compound
23 | 580 | CN(C)c1cccc(C(=O)NCc2[nH]nc3ccccc23)c1
24 | 589 | CCOCCCNC(=O)c1ccc2nc(CCc3ccc(NC(C)=O)cc3)[nH]c2c1
25 | 616 | COc1ccc(CN(Cc2ccccc2)Cc2cc(=O)n3cc(C)ccc3n2)cc1OC
26 | 859 | COc1ccc(-n2ccn3cc(-c4ccc(F)cc4)nc3c2=O)cc1Cl
27 | 801 | Cc1cccc(CNC(=O)c2cc3n(n2)CC(C)(C(=O)NCCC(C)C)N(C)C3=O)c1 (configuration not stated)
28 | 915 | Cn1nccc1-c1cccc(-c2noc(-c3ccc(F)cc3)n2)c1
29 | 783 | CC(Oc1ccccc1)C(=O)NCCCn1cccc1 (configuration not stated)
30 | 622 | Cc1ccn2c(NC(=O)c3ccco3)c(-c3ccccc3)nc2c1
31 | 781 | O=C(CC1CCCC1)N1CCCCC1c1nncn1CC1CC1 (configuration not stated)
32 | 928 | COC(=O)C1=CN(c2cccc(F)c2)c2cc(Br)ccc2S1(=O)=O
33 | 1060 | Cc1oc(C(C)C)nc1C(=O)NCc1ccc(C(F)(F)F)cc1
34 | 720 | COc1cc2nc(C(=O)N3CCCCC3)cc(Nc3ccc(F)c(F)c3)c2cc1OC
35 | 650 | O=C(c1ccc(-c2csc(C3CC3)n2)cc1)N1CCN(c2ccccn2)CC1
36 | 599 | COc1cc2c(cc1OC)C(C(=O)NCCN(C)C)C(c1ccccc1F)N(C)C2=O (configuration not stated)
37 | 825 | Cc1noc(C)c1CNC(=O)c1ccc(OC(F)(F)F)cc1
38 | 621 | O=C(Nc1ccccc1F)NC1CCCN(c2cc(-c3ccncc3)[nH]n2)C1 (configuration not stated)
39 | 686 | Cn1nc(C(=O)N2CCCC(C(=O)N3CCCC3)C2)c2c1CCN(C(=O)c1c(F)cccc1F)C2 (configuration not stated)
40 | 1010 | CCC(C(=O)NC1(c2nc(-c3cccnc3)no2)CCCCC1)c1ccccc1 (configuration not stated)
41 | 724 | O=C1CCN(S(=O)(=O)c2cccc3nsnc23)CCCCCCN1
42 | 874 | Cc1cc(C)cc(NS(=O)(=O)c2cc3c4c(c2)CCC(=O)N4CCC3)c1
43 | 758 | CCOc1ccc(C(=O)N2C[C@@H]3C[C@H]2C[C@@H]3NC(=O)c2cccs2)cc1
44 | 949 | C=CCNc1nc(-c2cccc([N+](=O)[O-])c2)cs1

Row | RP-LC retention time [s] | Compound
45 | 1150 | Cc1ccc(-n2nc(C)c3c(C)c(CCC(=O)NCCc4c[nH]c5ccccc45)c(C)nc32)cc1C
46 | 769 | O=C(NCc1csc(-c2cccs2)n1)C1CCN(C(=O)c2c(F)cccc2F)CC1
47 | 856 | Cc1ccc(C2NC(=O)N(CC(=O)Nc3ccc4c(c3)CCC4)C3=C2C(=O)OC3)cc1 (configuration not stated)
48 | 644 | N#Cc1cccc(-c2cn3c(n2)N(C(=O)c2ccoc2)CCC3)c1
49 | 664 | Clc1ccc(Cl)c(-c2ccc(CNCc3ccncc3)o2)c1
50 | 579 | CCN1CCN(c2cc(C)c3cc(NC(=O)C4CCCCC4)ccc3n2)CC1
51 | 531 | CN(C)[C@@H]1CN(C(=O)c2ccc(F)c(F)c2)C[C@H]1CO
52 | 1090 | CCc1noc(C2(NC(=O)C(CC)c3ccccc3)CCCCC2)n1 (configuration not stated)
53 | 821 | CCn1ncc(NC(=O)COc2ccc(F)cc2)c(N2CCOCC2)c1=O
54 | 870 | CC(C)n1c(N2CCN(C(=O)c3ccc(Br)o3)CC2)cc(=O)n(C(C)C)c1=O
55 | 672 | CC(C)Cn1c(CC2CCN(C(=O)COc3ccccc3)C2)nc2cccnc21 (configuration not stated)
56 | 630 | Cc1cc(C)n(Cc2ccc(C(=O)N3C[C@H]4C[C@H](C3)[C@H]3CCCC(=O)N3C4)o2)n1
57 | 624 | c1ccc(-n2ncc3cccnc32)cc1
58 | 706 | CCn1cc(CC(=O)NCCC(C)C)c2cccnc21
59 | 678 | CCc1ccc2c(c1)-c1ccccc1S(=O)(=O)N2CC(=O)N1CCN(CC)CC1
60 | 957 | CCN1C(=O)c2cc(S(=O)(=O)Nc3ccc(F)cc3)ccc2Oc2cccnc21
61 | 765 | Cc1ccc(OCC(=O)Nc2nnc(C3CC(=O)N(c4ccccc4)C3)o2)cc1 (configuration not stated)
62 | 696 | CCOC(=O)c1cc(S(=O)(=O)N2CCCC2C(=O)N2CCc3ccccc32)cn1C (configuration not stated)
63 | 1060 | Cc1nc2cc(-c3noc(-c4cncc(Br)c4)n3)ccc2o1
64 | 752 | CCCC(=O)Nc1nc(-c2ccc3c(c2)NC(=O)CO3)c(C)s1
65 | 818 | CC1=C(c2cccc(Cl)c2)S(=O)(=O)N=C1N1CCCN(C(=O)c2ccco2)CC1
66 | 1000 | CCN(Cc1ccccc1)C(=O)Cn1nc(C)c2sc(-c3ccccc3)nc2c1=O

Row | Compound | RP-LC retention time [s]
67 | COc1ccc2c(c1)C1(CCN(C(=O)CC(C)(C)C)C1)C(=O)N2C (configuration not stated) | 782
